Reference: patent US10874743B2, “IRAK degraders and uses thereof” (Kymera Therapeutics, Inc., priority 2017, dated 2020)

Target: T1, IRAK4 (Homo sapiens, UniProt Q9NWZ3)
T1 sequence (Q9NWZ3 1-460): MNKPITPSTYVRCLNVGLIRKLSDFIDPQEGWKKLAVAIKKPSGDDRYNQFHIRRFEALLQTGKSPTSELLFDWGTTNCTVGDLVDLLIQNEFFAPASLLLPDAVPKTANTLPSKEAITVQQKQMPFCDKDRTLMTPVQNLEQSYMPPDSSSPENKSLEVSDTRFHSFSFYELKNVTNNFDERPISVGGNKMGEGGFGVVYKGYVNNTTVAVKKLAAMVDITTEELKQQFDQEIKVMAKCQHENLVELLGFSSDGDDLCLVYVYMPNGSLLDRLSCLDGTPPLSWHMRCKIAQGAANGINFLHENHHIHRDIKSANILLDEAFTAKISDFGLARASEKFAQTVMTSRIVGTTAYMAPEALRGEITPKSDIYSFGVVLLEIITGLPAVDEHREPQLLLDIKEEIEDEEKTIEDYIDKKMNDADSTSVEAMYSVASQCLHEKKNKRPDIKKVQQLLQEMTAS
Assay: OCI-LY-10 degradation assay (western blot, % IRAK4 degraded after 4 hours)
Format: cell-based
Parameters: endogenous in cells; host or cells: OCI-LY10
Details: OCI-LY10 cells, IRAK4 degraded after 4 hours, western blot
How it was run: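 IRAK4 loss after 4 h at 37° C was scored A (>50%), B (>20-50%) or C (<20%) from infrared western blots of RIPA lysates, 20-25 μg protein per lane. Compound was applied at 0.003-10 μM final to OCI-LY10 cells cultured in RPMI-1640 with 20% FBS and 55 μM 2-ME.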

| SMILES | OCI-LY10 % IRAK4 Degradation |
| --- | --- |
| Cc1ncsc1-c1ccc(CNC(=O)C2C[C@@H](O)CN2C(=O)[C@@H](NC(=O)COCCOCCOCCOCCOC(C)(C)C(F)CNC(=O)c2cnc(-n3ncc4cc(C#N)cnc43)cc2NC2CC2)C(C)(C)C)cc1 (stereo partly drawn) [I-118, 6-(5-Cyanopyrazolo[3,4-b]pyridin-1-yl)-4-(cyclopropylamino)-N-[2-fluoro-3-[2-[2-[2-[2-[2-[[(1S)-1-[(4R)-4-hydroxy-2-[[4-(4-methylthiazol-5-yl)phenyl]methylcarbamoyl]pyrrolidine-1-carbonyl]-2,2-dimethyl-propyl]amino]-2-oxo-ethoxy]ethoxy]ethoxy]ethoxy]ethoxy]-3-methyl-butyl]pyridine-3-carboxamide] | C (<20% degradation) |
| Cc1ncsc1-c1ccc(CNC(=O)C2C[C@@H](O)CN2C(=O)[C@@H](NC(=O)COCCOCCOCCOCCOC(C)C(F)CNC(=O)c2cnc(-n3ncc4cc(C#N)cnc43)cc2NC2CC2)C(C)(C)C)cc1 (stereo partly drawn) [I-121] | C (<20% degradation) |
| Cc1ncsc1-c1ccc(CNC(=O)[C@@H]2C[C@@H](O)CN2C(=O)[C@@H](NC(=O)COCCOCCOCCOCCOCC(=O)N2CCN([C@H]3CC[C@H](Oc4ncnc5sc6c(c45)[C@@H](C[C@H](O)C(N)=O)CC6)CC3)CC2)C(C)(C)C)cc1 [I-123] | C (<20% degradation) |
| Cc1ncsc1-c1ccc(CNC(=O)[C@@H]2C[C@@H](O)CN2C(=O)[C@@H](NC(=O)COCCOCCOCCOCCOCCN2CCN([C@H]3CC[C@H](Oc4ncnc5sc6c(c45)[C@@H](C[C@H](O)C(N)=O)CC6)CC3)CC2)C(C)(C)C)cc1 [I-124, (2S,4R)-1-[(2S)-2-[[2-[2-[2-[2-[2-[2-[4-[4-[[(8R)-8-[(2S)-3-amino-2-hydroxy-3-oxo-propyl]-7,8-dihydro-6H-cyclopenta[4,5]thieno[1,2-c]pyrimidin-1-yl]oxy]cyclohexyl]piperazin-1-yl]ethoxy]ethoxy]ethoxy]ethoxy]ethoxy]acetyl]amino]-3,3-dimethyl-butanoyl]-4-hydroxy-N-[[4-(4-methylthiazol-5-yl)phenyl]methyl]pyrrolidine-2-carboxamide] | C (<20% degradation) |
| Cc1ncsc1-c1ccc(CNC(=O)[C@@H]2C[C@@H](O)CN2C(=O)[C@@H](NC(=O)COCCCCCCCCNC(=O)c2ccc(-n3cc(NC(=O)c4coc(-c5ccnc(NCC(F)(F)F)c5)n4)c(C(N)=O)n3)cc2)C(C)(C)C)cc1 [I-125, N-[3-carbamoyl-1-[4-[8-[2-[[(1S)-1-[(2S,4R)-4-hydroxy-2-[[4-(4-methylthiazol-5-yl)phenyl]methylcarbamoyl]pyrrolidine-1-carbonyl]-2,2-dimethyl-propyl]amino]-2-oxo-ethoxy]octylcarbamoyl]phenyl]pyrazol-4-yl]-2-[2-(2,2,2-trifluoroethylamino)-4-pyridyl]oxazole-4-carboxamide] | C (<20% degradation) |
| CC[C@@H]1[C@H](F)C(=O)N[C@@H]1COc1ncc(C#Cc2ccc(C(=O)NCCOCCOCCOCCNc3cccc4c3C(=O)N(C3CCC(=O)NC3=O)C4=O)cc2)c2cc(C(N)=O)c(OC)cc12 (stereo partly drawn) [I-126, 4-[2-[4-[2-[2-[2-[2-[[2-(2,6-Dioxo-3-piperidyl)-1,3-dioxo-isoindolin-4-yl]amino]ethoxy]ethoxy]ethoxy]ethylcarbamoyl]phenyl]ethynyl]-1-[[(2S,3S,4S)-3-ethyl-4-fluoro-5-oxo-pyrrolidin-2-yl]methoxy]-7-methoxy-isoquinoline-6-carboxamide] | B (>20-50% degradation) |
| CC(C)(OCCNCCOCCNc1cccc2c1C(=O)N(C1CCC(=O)NC1=O)C2=O)C(F)CNC(=O)c1cnc(-n2ncc3cc(C#N)cnc32)cc1NC1CC1 (stereo not drawn) [I-129] | C (<20% degradation) |
| CC(C)(OCCOCCNCCOCCNc1cccc2c1C(=O)N(C1CCC(=O)NC1=O)C2=O)C(F)CNC(=O)c1cnc(-n2ncc3cc(C#N)cnc32)cc1NC1CC1 (stereo not drawn) [I-131] | C (<20% degradation) |
| NC(=O)c1nn(-c2cccc(C(=O)NCCOCCOCCOCCOCCNc3cccc4c3C(=O)N(C3CCC(=O)NC3=O)C4=O)c2)cc1NC(=O)c1coc(-c2ccnc(NCC(F)(F)F)c2)n1 (stereo not drawn) [I-136] | B (>20-50% degradation) |
| NC(=O)c1nn(-c2ccc(C(=O)NCCOCCOCCNc3cccc4c3C(=O)N(C3CCC(=O)NC3=O)C4=O)cc2)cc1NC(=O)c1cccc(-c2ccnc(NCC(F)(F)F)c2)n1 (stereo not drawn) [I-137] | B (>20-50% degradation) |
| NC(=O)c1nn(-c2ccc(C(=O)NCCOCCOCCNc3cccc4c3C(=O)N(C3CCC(=O)NC3=O)C4=O)cc2)cc1NC(=O)c1coc(-c2ccnc(NCC3CC3)c2)n1 (stereo not drawn) [I-138] | A (>50% degradation) |
| NC(=O)c1nn(C2CCC(C(=O)NCCOCCOCCNc3cccc4c3C(=O)N(C3CCC(=O)NC3=O)C4=O)CC2)cc1NC(=O)c1coc(-c2ccnc(NCC(F)(F)F)c2)n1 (stereo not drawn) [I-139] | B (>20-50% degradation) |
| NC(=O)c1nn(-c2ccc(C(=O)NCCOCCOCCNc3cccc4c3C(=O)N(C3CCC(=O)NC3=O)C4=O)cc2)cc1NC(=O)c1coc(-c2ccncc2)n1 (stereo not drawn) [I-140] | B (>20-50% degradation) |
| N[C@@H]1CCCC[C@@H]1Nc1ccn2nc(-c3cn(-c4ccc(C(=O)NCCOCCOCCNc5cccc6c5C(=O)N(C5CCC(=O)NC5=O)C6=O)cc4)nc3C(F)F)cc2n1 (stereo partly drawn) [I-142] | B (>20-50% degradation) |
| NC(=O)c1nn(-c2ccc(C(=O)NCCOCCOCCNc3cccc4c3C(=O)N(C3CCC(=O)NC3=O)C4=O)nc2)cc1NC(=O)c1coc(-c2ccnc(NCC(F)(F)F)c2)n1 (stereo not drawn) [I-143] | B (>20-50% degradation) |
| NC(=O)c1nn(-c2ccc(C(=O)NCCOCCOCCCc3cccc4c3C(=O)N(C3CCC(=O)NC3=O)C4=O)cc2)cc1NC(=O)c1coc(-c2ccnc(NCC(F)(F)F)c2)n1 (stereo not drawn) [I-147] | A (>50% degradation) |
| NC(=O)c1nn(-c2ccc(C(=O)NCCOCCOCCOCCOCCCc3ccc4c(c3)C(=O)N(C3CCC(=O)NC3=O)C4=O)cc2)cc1NC(=O)c1coc(-c2ccnc(NCC(F)(F)F)c2)n1 (stereo not drawn) [I-148] | B (>20-50% degradation) |
| NC(=O)c1nn(-c2ccc(C(=O)NCCOCCOCCOCCOCC#Cc3ccc4c(c3)C(=O)N(C3CCC(=O)NC3=O)C4=O)cc2)cc1NC(=O)c1coc(-c2ccnc(NCC(F)(F)F)c2)n1 (stereo not drawn) [I-149] | A (>50% degradation) |
| NC(=O)c1nn(-c2ccc(C(=O)NCC3CN(CCOCCNc4cccc5c4C(=O)N(C4CCC(=O)NC4=O)C5=O)CCO3)cc2)cc1NC(=O)c1coc(-c2ccnc(NCC(F)(F)F)c2)n1 (stereo not drawn) [I-151] | A (>50% degradation) |
| NC(=O)[C@@H](O)C[C@H]1CCc2sc3ncnc(O[C@H]4CC[C@H](N5CCN(C(=O)COCCNc6cccc7c6C(=O)N(C6CCC(=O)NC6=O)C7=O)CC5)CC4)c3c21 (stereo partly drawn) [I-153] | C (<20% degradation) |
| NC(=O)[C@@H](O)C[C@H]1CCc2sc3ncnc(OC4CCC(N5CCN(C(=O)COCCOCCNc6cccc7c6C(=O)N(C6CCC(=O)NC6=O)C7=O)CC5)CC4)c3c21 (stereo partly drawn) [I-160, (2S)-3-[(8R)-1-[4-[4-[2-[2-[2-[[2-(2,6-dioxo-3-piperidyl)-1,3-dioxo-isoindolin-4-yl]amino]ethoxy]ethoxy]acetyl]piperazin-1-yl]cyclohexoxyl-7,8-dihydro-6H-cyclopenta[4,5]thieno 1,2-c]pyrimidin-8-yl]-2-hydroxy-propanamide] | C (<20% degradation) |
| NC(=O)[C@@H](O)C[C@H]1CCc2sc3ncnc(OC4CCC(N5CCN(C(=O)COCCOCCOCCOCCNc6cccc7c6C(=O)N(C6CCC(=O)NC6=O)C7=O)CC5)CC4)c3c21 (stereo partly drawn) [I-161, (2S)-3-[(8R)-1-[4-[4-[2-[2-[2-[2-[2-[[2-(2,6-dioxo-3-piperidyl)-1,3-dioxo-isoindolin-4-yl]amino]ethoxy]ethoxy]ethoxy]ethoxy]acetyl]piperazin-1-yl]cyclohexoxy]-7,8-dihydro-6H-cyclopenta[4,5]thieno[1,2-c]pyrimidin-8-yl]-2-hydroxy-propanamide] | C (<20% degradation) |
| NC(=O)c1nn(C2CN(CCOCCOCCOCCNc3cccc4c3C(=O)N(C3CCC(=O)NC3=O)C4=O)C2)cc1NC(=O)c1coc(-c2ccnc(NCC(F)(F)F)c2)n1 (stereo not drawn) [I-169, N-[3-carbamoyl-1-[1-[2-[2-[2-[2-[[2-(2,6-dioxo-3-piperidyl)-1,3-dioxo-isoindolin-4-yl]amino]ethoxy]ethoxy]ethoxy]ethyl]azetidin-3-yl]pyrazol-4-yl]-2-[2-(2,2,2-trifluoroethylamino)-4-pyridyl]oxazole-4-carboxamide] | C (<20% degradation) |
| NC(=O)c1nn(C2CCN(CCOCCOCCOCCNc3cccc4c3C(=O)N(C3CCC(=O)NC3=O)C4=O)CC2)cc1NC(=O)c1coc(-c2ccnc(NCC(F)(F)F)c2)n1 (stereo not drawn) [I-170, N-[3-carbamoyl-1-[1-[2-[2-[2-[2-[[2-(2,6-dioxo-3-piperidyl)-1,3-dioxo-isoindolin-4-yl]amino]ethoxy]ethoxy]ethoxy]ethyl]-4-piperidyl]pyrazol-4-yl]-2-[2-(2,2,2-trifluoroethylamino)-4-pyridyl]oxazole-4-carboxamide] | B (>20-50% degradation) |
